According to ChEMBL document CHEMBL5729768, “Azalactam compounds as HPK1 inhibitors” (2023):

How the values were obtained:
[1] = molecular target: Ribosomal protein S6 kinase alpha-2 (Homo sapiens, UniProt Q15349)
[2] = molecular target: T1, Serine/threonine-protein kinase D2 (Homo sapiens, UniProt Q9BZL6)
T1 sequence (Q9BZL6 whole entry): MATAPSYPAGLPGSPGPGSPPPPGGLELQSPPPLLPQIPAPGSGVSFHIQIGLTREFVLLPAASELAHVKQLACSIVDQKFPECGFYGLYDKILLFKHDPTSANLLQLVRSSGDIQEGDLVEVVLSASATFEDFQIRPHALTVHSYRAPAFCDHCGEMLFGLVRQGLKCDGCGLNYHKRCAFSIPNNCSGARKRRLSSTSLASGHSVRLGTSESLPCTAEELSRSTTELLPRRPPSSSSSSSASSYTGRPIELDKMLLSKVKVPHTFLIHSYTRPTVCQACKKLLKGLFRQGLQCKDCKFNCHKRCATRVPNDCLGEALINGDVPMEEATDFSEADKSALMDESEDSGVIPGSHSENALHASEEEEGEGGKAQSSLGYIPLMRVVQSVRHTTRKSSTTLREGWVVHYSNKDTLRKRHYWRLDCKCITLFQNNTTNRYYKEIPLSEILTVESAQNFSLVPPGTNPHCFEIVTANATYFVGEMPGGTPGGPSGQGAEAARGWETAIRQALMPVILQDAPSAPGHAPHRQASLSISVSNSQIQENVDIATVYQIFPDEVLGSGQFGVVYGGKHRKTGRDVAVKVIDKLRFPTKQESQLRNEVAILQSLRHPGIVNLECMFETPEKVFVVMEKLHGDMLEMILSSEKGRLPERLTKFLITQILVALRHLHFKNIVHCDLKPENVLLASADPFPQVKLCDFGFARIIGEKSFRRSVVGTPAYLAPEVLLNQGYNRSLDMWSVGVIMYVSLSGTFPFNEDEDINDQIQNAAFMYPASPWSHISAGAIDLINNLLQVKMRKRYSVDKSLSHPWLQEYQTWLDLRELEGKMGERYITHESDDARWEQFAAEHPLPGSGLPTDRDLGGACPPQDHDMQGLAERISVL

Chain of Ribosomal protein S6 kinase alpha-2 (Q15349 whole entry): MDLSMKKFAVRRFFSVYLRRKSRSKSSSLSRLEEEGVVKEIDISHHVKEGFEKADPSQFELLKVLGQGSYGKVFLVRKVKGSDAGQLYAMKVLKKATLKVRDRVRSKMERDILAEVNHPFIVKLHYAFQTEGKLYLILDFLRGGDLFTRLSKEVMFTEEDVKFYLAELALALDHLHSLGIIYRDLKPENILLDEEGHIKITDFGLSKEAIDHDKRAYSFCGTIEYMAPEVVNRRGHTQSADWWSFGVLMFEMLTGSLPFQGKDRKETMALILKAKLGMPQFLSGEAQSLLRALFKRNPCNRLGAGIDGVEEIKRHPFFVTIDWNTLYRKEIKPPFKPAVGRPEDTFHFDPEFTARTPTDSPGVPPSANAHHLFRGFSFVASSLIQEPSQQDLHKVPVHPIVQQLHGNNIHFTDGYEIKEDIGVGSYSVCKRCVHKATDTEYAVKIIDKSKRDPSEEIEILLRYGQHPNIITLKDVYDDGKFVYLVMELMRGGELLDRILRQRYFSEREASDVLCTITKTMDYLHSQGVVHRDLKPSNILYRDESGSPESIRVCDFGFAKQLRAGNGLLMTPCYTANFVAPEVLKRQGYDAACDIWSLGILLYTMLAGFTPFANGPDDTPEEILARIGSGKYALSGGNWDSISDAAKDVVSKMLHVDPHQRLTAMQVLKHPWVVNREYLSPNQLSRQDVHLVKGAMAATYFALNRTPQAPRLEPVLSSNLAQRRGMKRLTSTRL

Row | IC50 [1] | IC50 [2] | Structure (SMILES)
1 | 48.6 nM | 942 nM | COC[C@@H](N)c1nc(C2(C)CC2)cc2c1CN(c1cccc(-c3nnc4n3[C@@H](C)CC4)n1)C2=O
2 | 53.5 nM | 251 nM | CC[C@@H](N)c1nc(N(C)C(C)C)cc2c1CN(c1cccc(-c3nnc4n3[C@@H](C)CC4)n1)C2=O
